Data as given in patent US10864201B2, “Heteroaromatic compounds as Vanin inhibitors” (Boehringer Ingelheim International GmbH, priority 2018, dated 2020).
pIC50: −log10 of the molar value.

Assays:
[1] = molecular target: FLAG-tagged Vanin-1 (AA 22-493, T26I) (Homo sapiens (Human), UniProt O95497, T26I); assay: Vanin-1 enzymatic assay; assay type: biochemical; details: formation of pantothenic acid from D-pantethine (3 μM), RapidFire MS; geometric mean in case of multiple measurements; read-out: VNN 1 IC50
Protocol: The test compounds are dissolved in 100% DMSO at a concentration of 10 mM and in a first step diluted in DMSO to a concentration of 5 mM, followed by serial dilution steps in 100% DMSO. Dilution factor and number of dilution steps may vary according to needs. Typically 8 different concentrations by 1:5 dilutions are prepared, a further intermediate dilutions of the substances is carried out with assay buffer resulting in 1% final DMSO concentration in the assay.
0.1 nM of FLAG-tagged Vanin-1 (AA 22-493, T26I, produced internally) and test compounds are incubated at room temperature for 20 minutes in assay buffer (1 mM DTT, 0.0025% Brij-35, 50 mM HEPES, pH7.5). D-Pantethine (Sigma, Cat #P2125-5G) in assay buffer is added (final concentration 3 μM) and incubated for additional 30 minutes at room temperature. Total assay volume typically is 40 μl but might be adjusted according to needs. Reaction is stopped by adding equal volume of stop solution as the reaction mixture to reach 100 nM HD-pantothenic acid (as an internal standard) and 1% TFA. Assay plates are centrifuged for 2 minutes and the formation of pantothenic acid is detected by RapidFire Mass Spectrometry (mobile phase A: 0.1% formic acid and 0.01% trifluoroacetic acid in water; mobile phase B: 47.5% acetonitrile, 47.5% methanol, 0.1% formic acid and 0.01% trifluoroacetic acid in water) using a C18, 12 μL cartridge (Agilent Cat #G9205A).
The values given in Table I result from measurements of one or more samples. In case of multiple measurements the geometric mean values are given.

Pantetheinase (vanin) = assay: Human Whole Blood assay; assay type: cell-based; details: formation of pantothenic acid after pantethine supplementation, RapidFire MS, read-out: HWB IC50
Protocol: Human Whole Blood assay: Pantetheinase (vanin) converts panteheine into pantothenic acid and cysteamine. Accordingly, in the described protocol vanin activity is quantified by formation of pantothenic acid after pantetheine supplementation via pantethine. The assay is applicable to identify vanin inhibitors. Compound stocks were dissolved in DMSO at 10 mM. Further dilutions were performed in RPMI 1640 medium (Gibco, #A-10491-01) and final concentrations in the assay were 0.032 nM-500 nM.
Human blood was drawn into a blood bag (1% heparin, 50 I.E./mL). Blood was aliquoted into cavities of 96-deep-well plates at 290 μL and mixed with 10 μL compound solution or vehicle (30 sec at 1400 rpm on a shaker). Equilibration followed at room temperature, 250 rpm and for 30 min. The assay was started by adding 10 μL of substrate solution (20 μM pantethine in 1 mM DTT, 0.0025% Brij-35, 50 mM HEPES, pH7.5) to each well, except for some blank wells which received […] substrate buffer (1 mM DTT, 0.0025% Brij-35, 50 mM HEPES, pH7.5) only. Samples were thoroughly shaken (30 sec, 1400 rpm) and reaction was allowed to take place at room temperature, 250 rpm and for 5 min. The reaction was stopped by addition of a vanin tool inhibitor in excess (BI-1 total conc. 10 μM). Centrifugation of the plate followed at 4° C., 665 G for 10 min. Then the blood plasma samples (100 μL) were transferred into another 96-deep-well plate and proteins were precipitated (5 min on ice) by adding 100 μL of ice cold precipitation solution (1 μM labelled pantothenic acid (di-β-alanine-13C6,15N2 calcium salt, Sigma, #705837) in acetonitrile). Afterwards the plate was centrifuged (4° C., 3220 G, 10 min) and supernatants (50 μL) were collected into another 96-deep-well plate and mixed (10 sec, 1400 rpm) with 150 μL ice cold formic acid (0.1%, Carl Roth GmbH+Co.KG, #CP03.1). The formation of pantothenic acid is detected by RapidFire Mass Spectrometry. A TripleQuad 6500+ (ABSciex, Germany) was equipped with an LC-1290 system, a RapidFire autosampler (Agilent, Germany) and a C18 cartridge Type C 12 μL (Agilent Cat #G9526-80000). Mobile phase A was consisting of 0.09% formic acid and 0.01% trifluoroacetic acid in water and mobile phase B of 0.09% formic acid and 0.01% trifluoroacetic acid in acetonitrile/methanol/water=47.5/47.5/5.

Sequence of FLAG-tagged Vanin-1 (AA 22-493, T26I) (O95497 22-493 T26I): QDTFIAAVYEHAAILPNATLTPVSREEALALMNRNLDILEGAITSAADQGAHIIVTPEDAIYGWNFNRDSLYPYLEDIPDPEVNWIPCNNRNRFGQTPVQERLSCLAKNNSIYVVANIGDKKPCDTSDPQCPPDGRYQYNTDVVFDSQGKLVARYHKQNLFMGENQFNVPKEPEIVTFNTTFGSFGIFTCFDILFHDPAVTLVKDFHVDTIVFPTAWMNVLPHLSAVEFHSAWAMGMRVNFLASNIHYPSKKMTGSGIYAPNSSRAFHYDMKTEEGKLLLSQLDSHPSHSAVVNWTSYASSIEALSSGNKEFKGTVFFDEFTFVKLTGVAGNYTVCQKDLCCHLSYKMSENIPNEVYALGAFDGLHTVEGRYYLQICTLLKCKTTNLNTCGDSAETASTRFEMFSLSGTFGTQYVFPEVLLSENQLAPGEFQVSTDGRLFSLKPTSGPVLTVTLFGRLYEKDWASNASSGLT

pIC50 [1] | pIC50 (Pantetheinase (vanin)) | SMILES
9.40 | 8.44 | C[C@]1(c2ccc(F)cc2)Cc2cc(C(=O)N3CCC4(CCOCC4)C3)cnc2N1 [Example 5.1, 2-[(2R)-2-(4-Fluorophenyl)-2-methyl-1H,2H,3H-pyrrolo[2,3-b]pyridine-5-carbonyl]-8-oxa-2-azaspiro[4.5]decane]
9.70 | 8.54 | CN(c1ncccn1)[C@H]1CCN(C(=O)c2cnc3c(c2)CCC(C)(C)N3)C1 [Example 11.3]
10.00 | 8.82 | C[C@]1(c2ccc(F)cc2)Cc2cc(C(=O)N3CC[C@H](N4CCCC4=O)C3)cnc2N1 [Example 5.3]
9.22 | 7.97 | CN(C(=O)C1CCC1)[C@H]1CCN(C(=O)c2cnc3c(c2)CCC(C)(C)N3)C1 [Example 11.10]
10.00 | 8.72 | C[C@]1(c2cccc(Cl)c2)Cc2cc(C(=O)N3CC[C@H](N4CCOC4=O)C3)cnc2N1 [Example 7.4]
8.96 | 8.02 | CN(C(=O)C1(C#N)CC1)[C@H]1CCN(C(=O)c2cnc3c(c2)CC(C)(C)N3)C1 [Example 2.2]
9.22 | 7.99 | C[C@]1(c2ccc(F)cc2)Cc2cc(C(=O)N3CC4(CCOCC4)C3)cnc2N1 [Example 5.6]
9.22 | 8.55 | CN(C(=O)C1CC(F)(F)C1)[C@H]1CCN(C(=O)c2cnc3c(c2)CC(C)(C)N3)C1 [Example 2.4]
9.30 | 8.16 | CN(C(=O)C1CC(F)(F)C1)[C@H]1CCN(C(=O)c2cnc3c(c2)CCC(C)(C)N3)C1 [Example 11.11]
9.70 | 7.76 | CN(c1ncccn1)[C@H]1CCN(C(=O)c2cnc3c(c2)C[C@](C)(c2ccc(F)cc2)N3)C1 [Example 5.5]
9.52 | 8.35 | CC1(C)CCc2cc(C(=O)N3CC4(CCOCC4)C3)cnc2N1 [Example 11.2]
10.00 | 8.85 | C[C@]1(c2cccc(F)c2)Cc2cc(C(=O)N3CC[C@H](N4CCOC4=O)C3)cnc2N1 [Example 4.1, 3-[(3S)-1-[(2R)-2-(3-Fluorophenyl)-2-methyl-1H,2H,3H-pyrrolo[2,3-b]pyridine-5-carbonyl]pyrrolidin-3-yl]-1,3-oxazolidin-2-one]
10.00 | 8.42 | C[C@]1(c2ccc(Cl)cc2)Cc2cc(C(=O)N3CC[C@H](N4CCCC4=O)C3)cnc2N1 [Example 8.3]
10.00 | 8.82 | C[C@]1(c2ccc(F)cc2)Cc2cc(C(=O)N3CC[C@H](N4CCOC4=O)C3)cnc2N1 [Example 5.2]
9.05 | 8.60 | CN(C(=O)C1CCC1)[C@H]1CCN(C(=O)c2cnc3c(c2)CC(C)(C)N3)C1 [Example 2.1, N-[(3S)-1-{2,2-Dimethyl-1H,2H,3H-pyrrolo[2,3-b]pyridine-5-carbonyl}pyrrolidin-3-yl]-N-methylcyclobutanecarboxamide]
8.82 | 7.94 | CC1(C)Cc2cc(C(=O)N3CC[C@H](N4CCCC4=O)C3)cnc2N1 [Example 1.2]

pIC50 [1] | pIC50 (Pantetheinase (vanin)) | SMILES
7.72 | 6.37 | CC(=O)N(C)[C@H]1CCN(C(=O)c2cnc3c(c2)C[C@@](C)(c2cccc(Cl)c2)N3)C1 [Example 7.3]
9.15 | 8.46 | CN(C(=O)C1CC1)[C@H]1CCN(C(=O)c2cnc3c(c2)CCC(C)(C)N3)C1 [Example 11.9]
8.64 | 7.42 | CN(c1ncccn1)[C@H]1CCN(C(=O)c2cnc3c(c2)CC(C)(C)N3)C1 [Example 3.1, N-[(3S)-1-{2,2-Dimethyl-1H,2H,3H-pyrrolo[2,3-b]pyridine-5-carbonyl}pyrrolidin-3-yl]-N-methylpyrimidin-2-amine]
9.05 | 7.94 | CN(C(=O)C1(C)CCC1)[C@H]1CCN(C(=O)c2cnc3c(c2)CCC(C)(C)N3)C1 [Example 11.4]
9.30 | 8.24 | CCC1(C)CCc2cc(C(=O)N3CC[C@H](N(C)C(C)=O)C3)cnc2N1 (stereo partly drawn) [Example 11.12]
9.15 | 8.28 | CC1(C)CCc2cc(C(=O)N3CC[C@H](N4CCCC4=O)C3)cnc2N1 [Example 11.8]
10.00 | 8.70 | CC(=O)N(C)[C@H]1CCN(C(=O)c2cnc3c(c2)C[C@](C)(c2cccc(Cl)c2)N3)C1 [Example 7.2]
9.52 | 8.09 | CC(=O)N(C)[C@H]1CCN(C(=O)c2cnc3c(c2)CCC(C)(c2ccccc2)N3)C1 (stereo partly drawn) [Example 12.2]
10.00 | 8.59 | C[C@]1(c2ccc(Cl)cc2)Cc2cc(C(=O)N3CC[C@H](N4CCOC4=O)C3)cnc2N1 [Example 8.2]
10.00 | 8.68 | C[C@]1(c2cccc(F)c2)Cc2cc(C(=O)N3CC[C@H](N4CCCC4=O)C3)cnc2N1 [Example 4.4]
10.00 | 8.85 | CC(=O)N(C)[C@H]1CCN(C(=O)c2cnc3c(c2)C[C@](C)(c2cccc(F)c2)N3)C1 [Example 4.3]
9.30 | 7.90 | CC(=O)N(C)[C@H]1CCN(C(=O)c2cnc3c(c2)CCC(C)(C)N3)C1 [Example 11.6]
8.31 | – | CN(C(=O)C1(C#N)CC1)[C@H]1CCN(C(=O)c2cnc3c(c2)CCC(C)(C)N3)C1 [Example 11.7]
7.63 | – | CN(C(=O)C1CCC1)[C@H]1CCN(C(=O)c2cnc3c(c2)CC[C@@](C)(c2cncnc2)N3)C1 [Example 13.2, N-methyl-N-[(3S)-1-[(7S)-7-Methyl-7-(pyrimidin-5-yl)-5,6,7,8-tetrahydro-1,8-naphthyridine-3-carbonyl]pyrrolidin-3-yl]cyclobutanecarboxamide]
9.70 | 8.68 | CC(=O)N(C)[C@H]1CCN(C(=O)c2cnc3c(c2)C[C@](C)(c2ccccc2)N3)C1 [Example 9.3]

SMILES | pIC50 [1] | pIC50 (Pantetheinase (vanin))
CC(=O)N(C)[C@H]1CCN(C(=O)c2cnc3c(c2)CC(C)(c2ccc(Cl)cc2)N3)C1 (mixture of isomers) [Example 8.1, N-[(3S)-1-[2-(4-Chlorophenyl)-2-methyl-1H,2H,3H-pyrrolo[2,3-b]pyridine-5-carbonyl]pyrrolidin-3-yl]-N-methylacetamide] | 9.70 | 8.37
CC(=O)N(C)[C@H]1CCN(C(=O)c2cnc3c(c2)C[C@](C)(c2ccc(F)cc2)N3)C1 [Example 6, N-[(3S)-1-[(2R)-2-(4-Fluorophenyl)-2-methyl-1H,2H,3H-pyrrolo[2,3-b]lpyridine-5-carbonyl]-pyrrolidin-3-yl]-N-methylacetamide] | 9.70 | 8.72
CC(=O)N(C)[C@H]1CCN(C(=O)c2cnc3c(c2)C[C@](C)(c2ccc(Cl)cc2)N3)C1 [Example 9.1, N-[(3S)-1-[(2R)-2-(4-Chlorophenyl)-2-methyl-1H,2H,3H-pyrrolo[2,3-b]pyridine-5-carbonyl]pyrrolidin-3-yl]-N-methylacetamide] | 10.00 | 8.52
